Data as given in patent US20110053914A1, “Pharmaceutical Combination Comprising 6-Dimethylaminomethyl-1-(3-methoxy-phenyl)-cyclohexane-1,3-diol or 6-Dimethylaminomethyl-1-(3-hydroxy-phenyl)-cyclohexane-1,3-diol and an Antiepileptic” (Gruenenthal GmbH, priority 2009, published 2011).
Structures can show the parent of a compound that is named as a salt. Where two headings read alike, the source gives them in different places.

Key:
Type in all cases: in vivo, rat
[1] = tested on: rats; assay: Spinal nerve ligation (Chung model for mononeuropathic pain) in rats, anti-allodynic testing; conditions: 30 min after A; A 4 mg/kg iv; B 10 mg/kg iv 20 min before A or vehicle; tactile allodynia
Procedure: Under pentobarbital anaesthesia (Narcoren®, 60 mg/kg i.p., Merial GmbH, Hallbergmoos, FRG), the L5, L6 spinal nerves were tightly ligated (Kim and Chung, Pain 1992; 50: 355). The left L5 and L6 spinal nerves were exposed by removing a small piece of the paravertebral muscle and a part of the left spinous process of the L5 lumbar vertebra. The L5 and L6 spinal nerves were then carefully isolated and tightly ligated with silk (NC-silk black, USP 5/0, metric 1, Braun Melsungen AG, Melsungen, FRG). After checking hemostasis, the muscle and the adjacent fascia were closed with sutures and the skin was closed with sutures.
After operation, animals were allowed to recover for one week. Animals develop tactile allodynia which is stable for at least five weeks. […] Threshold for tactile allodynia was measured with an electronic von Frey anesthesiometer (Somedic, Sweden). […] The median of the withdrawal threshold for each animal at a given time is calculated from five individual stimulations with the electronic von Frey filament. Withdrawal thresholds of the injured paws are expressed as % maximal possible effect (% MPE) comparing predrug threshold of Chung-animals (=0% MPE) and control threshold of sham-animals (=100% MPE). […] The effect of each compound and vehicle is calculated for each testing time point (e.g. 0.5, 1, 3 h post administration) as interindividual % MPE value (±SEM). […]

[2] = tested on: male Sprague Dawley rats; assay: Paw incision model in rats (post-operative pain), electronic von Frey; conditions: intraperitoneal, at maximum effect; effective dose at 25% of the maximum effect; tactile hyperalgesia
From the text: The paw incision model (Brennan, T. J., Vandermeulen, E. P., Gebhart, G. F., Pain 64, (1996), 493-501) is an animal model of post-operative pain.
In male Sprague Dawley rats (body weight 180-200 g) a longitudinal incision of 1 cm length is made, starting 0.5 cm from the proximal end of the paw, through the skin and fascia. Using bent tweezers the muscle is lifted up from the bottom and incised lengthwise, flat and centered using a scalpel. The muscle is spreaded bluntly with the tweezers. Subsequently, the wound is closed with two sutures.
The tactile hyperalgesia two hours after the operation is determined using an electronic von Frey filament (Somedic Sales AB, Hörby, Sweden). […] In order to investigate the sensitivity to the mechanical stimulus, the paw retraction threshold is determined on the ipsilateral paw as well as in the same position on the untreated contralateral paw and is given in grams of the applied pressure. The retraction threshold per paw is measured four times and the median value is then determined. The retraction threshold of the ipsi- and contralateral paw is measured prior administration (pre-test value) and at several times after administration of a substance, namely (15, 30 and 60 minutes after administration). […]
From the median values the Maximum Positive Effect (% MPE) is determined according to the following formula: […]

[3] = tested on: rats; assay: Randall-Selitto test in rats (carrageenan inflammatory pain); conditions: for ED50: Rattus norvegicus, 0.25 h
Procedure: The weight ratios of the components (a) and (b) that will lead to a supra-additive effect (synergistic effect) of the inventive pharmaceutical composition may be determined via the test of Randall and Selitto as described in Arch. Int. Pharmacodyn., 1957, 111: 409 to 419, which is a model for inflammatory pain. The respective part of the literature is hereby incorporated by reference and forms part of the present disclosure.
Acute inflammation was induced by an intraplantar injection of 0.1 ml of a carrageenan solution (0.5% in distilled water) into one hind paw. The mechanical nociceptive threshold was measured 4 hours after carrageenan injection using an Algesiometer (Ugo Basile, Italy). The device generates a mechanical force with a linear increase over time. The force is applied to the dorsal surface of the inflamed rat hind paw via a cone-shaped stylus with a rounded tip (2 mm tip diameter). The nociceptive threshold is defined as the force (in grams) at which the rat vocalises (cut-off force 250 g). The mechanical nociceptive threshold is measured at different timepoints after the drug or vehicle administration. The antinociceptive and antihyperalgesic activity of the tested substance is expressed as percentages of the maximal possible effect (% MPE). The group size is n=10.
The interactions studies presented herein were performed using equieffective doses of the two components, calculated from the ratio of the respective ED50 values of the components if administered alone.
The application route was intravenous (i.v.) for Axomadol hydrochloride (A) and intraperitoneal (i.p.) for the anticonvulsants Lamotrigine, Lacosamide, Levetiracetam, Retigabine and Carbamazepine. […] According to their respective timepoint of peak effect, A was applied 15 min and the anticonvulsant component also 15 min before timepoint of measurement of the interaction-experiments (i.e. both components were applied simultaneously). Thus, the time point of ED50 calculation of the combination corresponds to the timepoint of the peak effect of the respective compound.

[4] = ip, i.p., 15 min p. appl. (peak effect), read-out: ED50 [mg/kg] of the anticonvulsant alone

SMILES | ED50 [3, 4] [mg/kg] | Time point of peak effect p. appl. ([3]; anticonvulsant alone, i.p.) [min] | other results
COc1cccc([C@@]2(O)C[C@H](O)CC[C@@H]2CN(C)C)c1 (racemic) [A, (1RS,3RS,6RS)-6-dimethylaminomethyl-1-(3-methoxy-phenyl)-cyclohexane-1,3-diol hydrochloride] | – | – | Effect % MPE (time after administration of A) [1]: 29 ± 6 (30 min) % MPE; ED25 [mg/kg] (confidence interval) of the individual substance [2]: 9.15 mg/kg; Time point of peak effect p. appl. ([3]; A alone, i.v., timepoint of first measurement): 15 min; ED50 ([3]; iv, i.v., 15 min p. appl. (peak effect), read-out: ED50 [mg/kg] of A alone): 15.3 mg/kg; ED50 [mg/kg] of A alone ([3]; i.v., 15 min p. appl. (peak effect), hydrochloride): 15.3 mg/kg
CC(C)C[C@H](CN)CC(=O)O [(S)-pregabaline] | – | – | ED25 [mg/kg] (confidence interval) of the individual substance [2]: 18.8 mg/kg
NCC1(CC(=O)O)CCCCC1 [B, Gabapentin hydrochloride] | – | – | Effect % MPE (time after administration of A) [1]: 16 ± 5 (30 min) % MPE
NC(=O)N1c2ccccc2C=Cc2ccccc21 [Carbamazepine] | 30 | 15 | –
COC[C@@H](NC(C)=O)C(=O)NCc1ccccc1 [Lacosamide] | 35.9 | 15 | ED50 [mg/kg] of the anticonvulsant alone ([3]; i.p., 15 min p. appl. (peak effect)): 35.9 mg/kg
Nc1nnc(-c2cccc(Cl)c2Cl)c(N)n1 [Lamotrigine] | 35.3 | 15 | –
CC[C@@H](C(N)=O)N1CCCC1=O [Levetiracetam] | 986 | 15 | –
CCOC(=O)Nc1ccc(NCc2ccc(F)cc2)cc1N [Retigabine] | 5.09 | 15 | –
